According to the supplement of paper PMC4862054:

Columns and labels:
Settings in all cases: incubation time: 72 h
[1] = test system: HCC1599; assay: normalised viability (% of control), CellTiter-Blue; higher = more viable cells (about 100 = DMSO control)
Procedure, shortened: (§1)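 Compound dissolved in 5 µl medium was pre-loaded into 384-well plates, and breast cancer cell lines in 20 µl suspension were seeded on top and incubated 72 h. After adding 2.5 µl CellTiter-Blue reagent for 2 h at 37 °C, fluorescence was read at 560/590 nm. Plates were normalised to vehicle (100) and a positive kill control (0), with Z'-factor quality control. Each value is normalised viability at a single listed concentration from the series.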

[2] = test system: MDA-MB-436; assay: as above
Procedure, shortened: as §1

[3] = test system: CAL-51; assay: as above
Procedure, shortened: as §1

[4] = test system: Hs578T; assay: as above
Procedure, shortened: as §1

[5] = test system: BT-474; assay: as above
Procedure, shortened: as §1

[6] = test system: HCC1143; assay: as above
Procedure, shortened: as §1

[7] = test system: MFM-223; assay: as above
Procedure, shortened: as §1

[8] = test system: BT-549; assay: as above
Procedure, shortened: as §1

[9] = test system: HCC1937; assay: as above
Procedure, shortened: as §1

[10] = test system: HDQ-P1; assay: drug sensitivity score (DSS), CellTox Green (DSS (AUC-based score)); higher = stronger drug effect (viability inhibition or cytotoxicity); extreme values may be limits of the assay
Procedure, shortened: (§2)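 Using 20 µl of cell suspension per well, breast cancer cell lines were seeded into 384-well plates pre-loaded with compound at 5 concentrations in 10-fold steps across a compound-specific 10,000-fold range. Incubation lasted 72 h, after which CellTox Green fluorescence at 485/520 nm and then CellTiter-Glo luminescence, following 10 min at room temperature, were recorded. Each plate was normalised to 0.1 % DMSO and a positive kill control before the drug sensitivity score was derived from the area under the fitted dose-response curve.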

[11] = test system: HCC1599; assay: as above
Procedure, shortened: as §2

[12] = test system: CAL-120; assay: as above
Procedure, shortened: as §2

[13] = test system: CAL-51; assay: as above
Procedure, shortened: as §2

[14] = test system: MCF-10A; assay: as above
Procedure, shortened: as §2

[15] = test system: CAL-85-1; assay: as above
Procedure, shortened: as §2

[16] = test system: MDA-MB-231; assay: as above
Procedure, shortened: as §2

[17] = test system: BT-474; assay: as above
Procedure, shortened: as §2

[18] = test system: MDA-MB-453; assay: as above
Procedure, shortened: as §2

[19] = test system: HCC1143; assay: as above
Procedure, shortened: as §2

[20] = test system: DU-4475; assay: as above
Procedure, shortened: as §2

[21] = test system: MFM-223; assay: as above
Procedure, shortened: as §2

[22] = test system: BT-549; assay: as above
Procedure, shortened: as §2

[23] = test system: CAL-148; assay: as above
Procedure, shortened: as §2

[24] = test system: HCC1937; assay: as above
Procedure, shortened: as §2

SMILES: COc1cc(Nc2ncc(F)c(Nc3ccc4c(n3)NC(=O)C(C)(C)O4)n2)cc(OC)c1OC [R406]
- normalised viability ([1]; 10 nM): 105%
- normalised viability ([1]; 1000 nM): 112%
- normalised viability ([1]; 10000 nM): 104%
- normalised viability ([2]; 10 nM): 84.3%
- normalised viability ([2]; 1000 nM): 102%
- normalised viability ([2]; 10000 nM): 101%
- normalised viability ([3]; 3 nM): 107%
- normalised viability ([3]; 30 nM): 107%
- normalised viability ([3]; 100 nM): 107%
- normalised viability ([4]; 10 nM): 115%
- normalised viability ([4]; 1000 nM): 105%
- normalised viability ([4]; 10000 nM): 88.4%
- normalised viability ([5]; 10 nM): 133%
- normalised viability ([5]; 1000 nM): 111%
- normalised viability ([5]; 10000 nM): 130%
- normalised viability ([6]; 10 nM): 81.2%
- normalised viability ([6]; 1000 nM): 83.5%
- normalised viability ([6]; 10000 nM): 84.4%
- normalised viability ([7]; 10 nM): 92.4%
- normalised viability ([7]; 1000 nM): 89.5%
- normalised viability ([7]; 10000 nM): 85.4%
- normalised viability ([8]; 10 nM): 89.7%
- normalised viability ([8]; 1000 nM): 77.3%
- normalised viability ([8]; 10000 nM): 53%
- normalised viability ([9]; 10 nM): 105%
- normalised viability ([9]; 1000 nM): 98.2%
- normalised viability ([9]; 10000 nM): 86%

SMILES: Cc1cc(C(C)Nc2ccccc2)c2nc(N3CCOCC3)cc(=O)n2c1 (configuration not stated) [TGX-221]
- drug sensitivity score [10]: 11.9
- drug sensitivity score [11]: 0
- drug sensitivity score [12]: 0
- drug sensitivity score [13]: 0
- drug sensitivity score [14]: 1.09
- drug sensitivity score [15]: 0
- drug sensitivity score [16]: 0.585
- drug sensitivity score [17]: 0
- drug sensitivity score [18]: 0
- drug sensitivity score [19]: 0
- drug sensitivity score [20]: 0
- drug sensitivity score [21]: 0
- drug sensitivity score [22]: 0
- drug sensitivity score [23]: 0
- drug sensitivity score [24]: 0
